The values that follow come from ChEMBL document CHEMBL1132075, “Enantio- and diastereocontrolled dopamine D1, D2, D3 and D4 receptor binding of N-(3-pyrrolidinylmethyl)benzamides synthesized from aspartic acid” (Bioorg Med Chem Lett, 1999).

Each structure is given as a SMILES string.

Test [1] concerns the target T1, D(2) dopamine receptor (Homo sapiens, UniProt P14416). As to the kind of experiment: Binding affinity towards human Dopamine receptor D2 (short) by [3H]-spiperone displacement.
For test [2], the target named is T1, D(2) dopamine receptor. Nature of the test: Binding affinity towards human Dopamine receptor D2 (long) by [3H]-spiperone displacement.
A further test deals with T2, D(4) dopamine receptor (Homo sapiens, UniProt P21917).
T2 sequence (P21917 whole entry): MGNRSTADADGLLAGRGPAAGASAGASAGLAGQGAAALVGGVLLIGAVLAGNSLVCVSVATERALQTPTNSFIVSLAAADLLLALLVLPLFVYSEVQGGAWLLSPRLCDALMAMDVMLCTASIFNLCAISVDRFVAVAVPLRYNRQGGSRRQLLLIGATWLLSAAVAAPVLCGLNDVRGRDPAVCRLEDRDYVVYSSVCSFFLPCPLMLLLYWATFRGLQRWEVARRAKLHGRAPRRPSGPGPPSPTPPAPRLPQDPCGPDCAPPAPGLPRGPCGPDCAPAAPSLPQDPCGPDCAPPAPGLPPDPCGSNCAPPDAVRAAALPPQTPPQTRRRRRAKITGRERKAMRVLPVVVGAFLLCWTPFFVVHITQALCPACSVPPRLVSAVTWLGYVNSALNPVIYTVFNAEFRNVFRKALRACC
Nature of the test: Binding affinity towards human Dopamine receptor D4 by [3H]spiperone displacement.

In the next test the target is D(1A) dopamine receptor (Bos taurus, UniProt Q95136). Nature of the test: Binding affinity towards bovine dopamine D1 receptor by [3H]-SCH- 23390 displacement.
In another test the target is D(3) dopamine receptor (Homo sapiens, UniProt P35462). As to the kind of experiment: Binding affinity towards human dopamine D3 receptor by [3H]spiperone displacement.
Chain of D(3) dopamine receptor (P35462 whole entry): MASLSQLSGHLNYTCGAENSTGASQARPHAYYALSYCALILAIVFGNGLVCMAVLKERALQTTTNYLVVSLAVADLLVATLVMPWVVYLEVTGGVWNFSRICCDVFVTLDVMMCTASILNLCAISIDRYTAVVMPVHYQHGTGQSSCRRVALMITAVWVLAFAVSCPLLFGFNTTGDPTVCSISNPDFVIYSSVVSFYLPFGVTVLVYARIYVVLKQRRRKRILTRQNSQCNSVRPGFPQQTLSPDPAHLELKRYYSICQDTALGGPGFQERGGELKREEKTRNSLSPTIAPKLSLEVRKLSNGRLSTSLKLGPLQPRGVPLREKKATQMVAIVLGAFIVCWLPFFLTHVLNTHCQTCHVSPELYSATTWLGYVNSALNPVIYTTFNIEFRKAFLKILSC

Chain of D(1A) dopamine receptor (Q95136 whole entry): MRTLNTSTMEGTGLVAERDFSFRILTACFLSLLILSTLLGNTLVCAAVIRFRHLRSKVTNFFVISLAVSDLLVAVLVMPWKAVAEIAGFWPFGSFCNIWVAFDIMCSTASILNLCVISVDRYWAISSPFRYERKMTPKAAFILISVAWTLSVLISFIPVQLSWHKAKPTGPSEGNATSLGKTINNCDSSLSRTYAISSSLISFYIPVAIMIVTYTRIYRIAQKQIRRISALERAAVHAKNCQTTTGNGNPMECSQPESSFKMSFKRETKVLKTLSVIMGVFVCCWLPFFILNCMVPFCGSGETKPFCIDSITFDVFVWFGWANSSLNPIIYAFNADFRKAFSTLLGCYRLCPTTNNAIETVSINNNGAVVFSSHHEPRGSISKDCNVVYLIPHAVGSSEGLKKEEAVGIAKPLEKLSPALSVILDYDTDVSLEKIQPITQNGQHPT
T1 sequence (P14416 whole entry): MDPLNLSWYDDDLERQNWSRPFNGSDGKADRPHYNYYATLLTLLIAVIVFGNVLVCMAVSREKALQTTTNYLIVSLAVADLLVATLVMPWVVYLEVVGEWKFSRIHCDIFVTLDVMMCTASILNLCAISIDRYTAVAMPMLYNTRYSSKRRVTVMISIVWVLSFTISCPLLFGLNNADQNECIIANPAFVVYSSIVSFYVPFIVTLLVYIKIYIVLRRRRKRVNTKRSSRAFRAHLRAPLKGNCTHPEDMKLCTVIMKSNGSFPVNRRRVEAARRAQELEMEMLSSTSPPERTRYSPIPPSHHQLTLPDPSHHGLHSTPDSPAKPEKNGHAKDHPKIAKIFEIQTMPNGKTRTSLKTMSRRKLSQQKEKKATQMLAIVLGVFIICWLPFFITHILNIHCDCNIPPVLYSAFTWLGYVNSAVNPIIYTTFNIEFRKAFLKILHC

As for `CNc1cc(OC)c(C(=O)NC[C@H]2CCN(Cc3ccccc3)C2)cc1Cl`, the Ki at D(2) dopamine receptor [1] is 86 nM; at D(2) dopamine receptor [2] it was 110 nM; on D(4) dopamine receptor it was 23 nM; on D(1A) dopamine receptor, 9.7 µM; at D(3) dopamine receptor it was 360 nM.

Consider `COc1cc(NC(C)=O)c(Cl)cc1C(=O)NC[C@H]1CCN(Cc2ccccc2)C1`, for which the inhibition constant Ki on D(2) dopamine receptor [1] amounted to 25000 nM; at D(2) dopamine receptor [2] it was 27000 nM; on D(4) dopamine receptor, 340 nM; on D(1A) dopamine receptor it was 41 µM; on D(3) dopamine receptor, 8700 nM.

For the molecule `COc1cc(N)c(Cl)cc1C(=O)NC[C@@H]1CCN(Cc2ccccc2)C1`, the inhibition constant (Ki) is 640 nM on D(2) dopamine receptor [1]; 1400 nM at D(2) dopamine receptor [2]; 180 nM on D(4) dopamine receptor; 11 µM at D(1A) dopamine receptor; 570 nM on D(3) dopamine receptor.

For the molecule `CCC[C@H]1CN(Cc2ccccc2)C[C@@H]1CNC(=O)c1cc(Cl)c(NC)cc1OC`, the Ki at D(2) dopamine receptor [1] worked out at 540 nM; on D(2) dopamine receptor [2], 980 nM; at D(4) dopamine receptor, 990 nM; on D(1A) dopamine receptor, 4.1 µM; at D(3) dopamine receptor, 350 nM.

For `COc1cc(N(C)C(C)=O)c(Cl)cc1C(=O)NC[C@@H]1CCN(Cc2ccccc2)C1`, the inhibitory constant (Ki) on D(2) dopamine receptor [1] amounted to 19000 nM; on D(2) dopamine receptor [2], 30000 nM; on D(4) dopamine receptor, 4200 nM; on D(1A) dopamine receptor, 75 µM; on D(3) dopamine receptor, 7200 nM.

For `CCC[C@@H]1CN(Cc2ccccc2)C[C@H]1CNC(=O)c1cc(Cl)c(NC)cc1OC`, the inhibitory constant (Ki) on D(2) dopamine receptor [1] was determined as 24 nM; at D(2) dopamine receptor [2], 54 nM; on D(4) dopamine receptor it was 130 nM; at D(1A) dopamine receptor, 3.3 µM; at D(3) dopamine receptor it was 270 nM.

On to `COc1cc(N)c(Cl)cc1C(=O)NC[C@H]1CCN(Cc2ccccc2)C1`, for which the inhibition constant Ki at D(2) dopamine receptor [1] was determined as 540 nM; at D(2) dopamine receptor [2], 820 nM; on D(4) dopamine receptor, 140 nM; at D(1A) dopamine receptor, 11 µM; at D(3) dopamine receptor, 2200 nM.

On to `CCC[C@H]1CN(Cc2ccccc2)C[C@H]1CNC(=O)c1cc(Cl)c(NC)cc1OC`, for which the inhibitory constant (Ki) at D(2) dopamine receptor [1] was 28 nM; at D(2) dopamine receptor [2], 45 nM; on D(4) dopamine receptor it was 46 nM; on D(1A) dopamine receptor, 0.24 µM; at D(3) dopamine receptor it was 310 nM.

As for `CNc1cc(OC)c(C(=O)NC[C@H]2CN(Cc3ccccc3)C[C@H]2C)cc1Cl`, the inhibition constant Ki at D(2) dopamine receptor [1] came to 79 nM; on D(2) dopamine receptor [2], 150 nM; on D(4) dopamine receptor, 47 nM; at D(1A) dopamine receptor, 11 µM; on D(3) dopamine receptor, 110 nM.

As for `CNc1cc(OC)c(C(=O)NC[C@@H]2CCN(Cc3ccccc3)C2)cc1Cl`, the inhibition constant (Ki) was 58 nM at D(2) dopamine receptor [1]; 110 nM on D(2) dopamine receptor [2]; 19 nM at D(4) dopamine receptor; 5.1 µM at D(1A) dopamine receptor; 47 nM at D(3) dopamine receptor.

As for `COc1cc(N(C)C(C)=O)c(Cl)cc1C(=O)NC[C@H]1CCN(Cc2ccccc2)C1`, the inhibitory constant (Ki) was 28000 nM at D(2) dopamine receptor [1]; 38000 nM at D(2) dopamine receptor [2]; 7000 nM at D(4) dopamine receptor; 87 µM at D(1A) dopamine receptor; 11000 nM on D(3) dopamine receptor.

Take `COc1cc(NC(C)=O)c(Cl)cc1C(=O)NC[C@@H]1CCN(Cc2ccccc2)C1`: the inhibition constant (Ki) on D(2) dopamine receptor [1] was 21000 nM; on D(2) dopamine receptor [2] it was 19000 nM; on D(4) dopamine receptor, 250 nM; on D(1A) dopamine receptor it was 35 µM; at D(3) dopamine receptor it was 2700 nM.

On to `COc1ccc(Br)cc1C(=O)NC[C@@H]1CCN(Cc2ccccc2)C1`, for which the Ki at D(2) dopamine receptor [1] was found to be 1600 nM; on D(2) dopamine receptor [2], 3100 nM; at D(4) dopamine receptor, 48 nM; at D(1A) dopamine receptor, 3.7 µM; at D(3) dopamine receptor, 1100 nM.

In the case of `CNc1cc(OC)c(C(=O)NC[C@@H]2CN(Cc3ccccc3)C[C@H]2C)cc1Cl`, the inhibitory constant (Ki) on D(2) dopamine receptor [1] was determined as 10 nM; on D(2) dopamine receptor [2], 28 nM; on D(4) dopamine receptor, 220 nM; at D(1A) dopamine receptor, 14 µM; at D(3) dopamine receptor, 210 nM.

Regarding `CNc1cc(OC)c(C(=O)NC[C@@H]2CN(Cc3ccccc3)C[C@@H]2C)cc1Cl`, the Ki is 21 nM on D(2) dopamine receptor [1]; 51 nM at D(2) dopamine receptor [2]; 240 nM at D(4) dopamine receptor; 12 µM on D(1A) dopamine receptor; 570 nM at D(3) dopamine receptor.

`CNc1cc(OC)c(C(=O)NC[C@H]2CN(Cc3ccccc3)C[C@@H]2C)cc1Cl`: the Ki at D(2) dopamine receptor [1] came to 120 nM; at D(2) dopamine receptor [2] it was 330 nM; at D(4) dopamine receptor it was 150 nM; at D(1A) dopamine receptor it was 20 µM; at D(3) dopamine receptor, 320 nM.

As to `COc1ccc(Br)cc1C(=O)NC[C@H]1CCN(Cc2ccccc2)C1`, the inhibition constant (Ki) amounted to 1500 nM at D(2) dopamine receptor [1]; 2000 nM on D(2) dopamine receptor [2]; 46 nM at D(4) dopamine receptor; 5.2 µM on D(1A) dopamine receptor; 2100 nM on D(3) dopamine receptor.

Regarding `CCC[C@@H]1CN(Cc2ccccc2)C[C@@H]1CNC(=O)c1cc(Cl)c(NC)cc1OC`, the Ki at D(2) dopamine receptor [1] was found to be 190 nM; at D(2) dopamine receptor [2], 190 nM; on D(4) dopamine receptor, 200 nM; at D(1A) dopamine receptor it was 2.8 µM; on D(3) dopamine receptor, 31 nM.

Take `CCN1CCC[C@H]1CNC(=O)c1cc(S(N)(=O)=O)ccc1OC` [LEVOSULPIRIDE]: affinity on D(1A) dopamine receptor was put at a Ki of 50 µM.
